This is an account of results in patent US20250276089A1, “CO-DELIVERY OF INHIBITORY NUCLEIC ACIDS AND GENOME EDITORS FOR TUMOR THERAPY” (The Board of Regents of The University of Texas System, priority 2022, published 2025).

Molecules are shown by their SMILES.

The assay relates to tumor cells. The experiment in a line: mRNA delivery efficacy in tumor cells treated with an FAK inhibitor plus siCtrl+mRNA-LNPs. The assay is classed as cell-based. The settings on record: co-administered with siCtrl+mRNA-LNPs.

`CS(=O)(=O)c1cccc(CNc2nc(Nc3ccc4c(c3)CCC(=O)N4)ncc2C(F)(F)F)c1` [FAK inhibitor, PF-573228]: the “mRNA delivery efficacy and protein expression” value is on record as “enhanced”.
